# Where two headings read alike, the source gives them in different places.
# How the values were obtained:
# [1] = target: T1, α-glucosidase type I from Baker's Yeast (Saccharomyces cerevisiae, UniProt P53341); assay: biochemical
# T1 construct: purchased Sigma-Aldrich
# Description: (§1) Soluble starch, sodium dihydrogenphosphate (NaH2PO4), sodium potassium tartrate and sodium chloride were purchased from Merck. Analytical grade solvents for extraction and HPLC grade solvents for chromatography were from Scharlau (Barcelona, Spain). HPLC grade water was obtained by an EASY-pure II (Barnstead, Dubuque IA, USA) water purification system. Deuterated solvents were purchased from Armar Chemicals (Döttingen, Switzerland).
# The α-glucosidase inhibition was measured according to an earlier reported bioassay method ([18]). […] The mixed solution was incubated in 96-well plates at 37 °C for 15 min. After preincubation, the enzymatic reaction was initiated by adding 20 µL of 5 mM p-nitrophenyl-α-D-glucopyranoside solution in 0.1 M phosphate buffer (pH 6.9), and the reaction mixture was incubated for another 15 min at 37 °C. […] The reaction system without plant extracts was used as control and the system without α-glucosidase was used as blank for correcting the background absorbance. The inhibitory rate of sample on α-glucosidase was calculated by the following formula:
# % Inhibition=control absorbance-sample absorbance/control absorbance×100
# (§2) Statistical analyses were done using GraphPad Prism version 5.00 for Windows. Differences were evaluated by one-way analysis of variance (ANOVA) test completed by Tukey’s multicomparison test. Statistical signiﬁcance was declared at a p<0.05. All assays were performed at least in triplicate and the results were expressed as mean ± standard deviation (SD). IC50 values were determined by plotting a percent inhibition versus concentration curve for all assays.
# [2] = target: T2, Porcine pancreas α-amylase type VI (Sus scrofa, UniProt P00690); assay: biochemical
# T2 construct: purchased Sigma-Aldrich
# T2 sequence (P00690 16-511): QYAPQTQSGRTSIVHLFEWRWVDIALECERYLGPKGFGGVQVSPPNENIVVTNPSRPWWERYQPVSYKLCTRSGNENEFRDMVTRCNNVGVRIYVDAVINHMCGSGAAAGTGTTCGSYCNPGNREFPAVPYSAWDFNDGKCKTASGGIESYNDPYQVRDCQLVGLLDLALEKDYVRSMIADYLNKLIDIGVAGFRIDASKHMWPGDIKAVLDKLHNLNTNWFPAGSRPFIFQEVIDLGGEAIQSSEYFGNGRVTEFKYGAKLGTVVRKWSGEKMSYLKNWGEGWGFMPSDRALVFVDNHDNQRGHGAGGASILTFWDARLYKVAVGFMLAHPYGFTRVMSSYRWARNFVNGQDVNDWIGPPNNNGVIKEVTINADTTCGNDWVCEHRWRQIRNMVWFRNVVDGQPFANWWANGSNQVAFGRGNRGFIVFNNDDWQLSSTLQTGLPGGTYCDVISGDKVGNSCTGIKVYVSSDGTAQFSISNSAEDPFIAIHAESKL
# Description: as §1
# α-Amylase inhibition activity was assessed by a previously reported procedure with some modifications ([17]). […] Individual blanks were prepared to correct for the blank ground absorbance, where the enzyme was replaced with buffer as follows:
# Corrected absorbance of test sample = Absorbance of sample –absorbance of blank
# From the net absorbance obtained, the % (w/v) of maltose generated was calculated from the equation obtained from the maltose standard calibration curve (0–0.1%, w/v, maltose).
# Control incubations, representing 100% enzyme activity, were conducted in the same manner replacing the plant extract with DMSO. The percentage of α-amylase inhibition was calculated by the following equations:
# % reaction=mean of maltose in sample/mean of maltose in control×100
# % α-amylase inhibition activity= 100 - % reaction
# as §2
# [3] = isolated compounds, pH 6.8, 37 °C, 30 min, mean ± SD, read-out: α-amylase (IC50 µM)
# T1 sequence (P53341 whole entry): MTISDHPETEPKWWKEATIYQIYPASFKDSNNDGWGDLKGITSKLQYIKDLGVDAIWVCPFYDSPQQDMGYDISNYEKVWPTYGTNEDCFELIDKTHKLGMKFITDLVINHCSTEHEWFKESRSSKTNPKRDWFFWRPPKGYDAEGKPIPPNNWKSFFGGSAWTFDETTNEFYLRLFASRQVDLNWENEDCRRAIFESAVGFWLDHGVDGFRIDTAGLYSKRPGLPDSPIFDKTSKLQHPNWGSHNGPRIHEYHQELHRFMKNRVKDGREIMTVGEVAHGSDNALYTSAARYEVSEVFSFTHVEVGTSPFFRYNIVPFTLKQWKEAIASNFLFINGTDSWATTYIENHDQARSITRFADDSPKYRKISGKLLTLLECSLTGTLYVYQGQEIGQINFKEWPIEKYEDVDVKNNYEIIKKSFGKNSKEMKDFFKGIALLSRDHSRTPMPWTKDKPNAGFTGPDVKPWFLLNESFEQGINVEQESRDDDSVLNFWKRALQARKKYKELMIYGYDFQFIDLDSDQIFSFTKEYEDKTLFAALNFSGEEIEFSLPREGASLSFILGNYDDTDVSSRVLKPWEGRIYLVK
Compound,IC50 [1],"IC50 [2, 3]","IC50 ([1]; isolated compounds, pH 6.9, 37 °C, mean ± SD, read-out: α-glucosidase (IC50 µM))",IC50 [2]
"COc1ccc(-c2cc(=O)c3c(O)cc(O[C@@H]4O[C@H](C(=O)O)[C@@H](O)[C@H](O)[C@H]4O)cc3o2)cc1O [Compound 3, diosmetin 7-O-glucuronide]",17.1 ± 1.9 µM,76.3 ± 0.6 µM,,
"O=C(O)[C@H]1O[C@@H](Oc2cc(O)c3c(=O)cc(-c4ccc(O)c(O)c4)oc3c2)[C@H](O)[C@@H](O)[C@@H]1O [Compound 2, luteolin 7-O-glucuronide]",14.7 ± 2.1 µM,61.5 ± 1.4 µM,,
"O=c1cc(-c2ccc(O)c(O)c2)oc2cc(O[C@@H]3O[C@H](CO)[C@@H](O)[C@H](O)[C@H]3O)cc(O)c12 [Compound 1, luteolin 7-O-glucoside]",18.3 ± 1.7 µM,81.7 ± 2.3 µM,,
"COc1ccc(-c2cc(=O)c3c(O)c(OC)c(OC)cc3o2)cc1 [Compound 4, salvigenin]",,,> 50 µM,> 100 µM
